Reference: patent publication US10894787B2, “Modulators of the GPR119 receptor and the treatment of disorders related thereto” (Arena Pharmaceuticals, Inc., priority 2010, dated 2021)

Test system: male diabetic ZDF rats
Test: Oral glucose tolerance test (oGTT) in male diabetic ZDF rats
Assay type: in vivo, rat
Details: for Plasma Glucose Mean: N = 6; for % Inhibition of Glucose Excursion: AUC reduction relative to vehicle control, ZDF rats
Method: Male ZDF rats were fasted for 18 h and randomly grouped (n=6) to receive a GPR119 agonist, (Compound 1), at 0.3, 3, 10, or 30 mg/kg (mg compound per kg body weight). The compound was delivered orally via a gavage needle (p.o., volume 4 mL/kg) 60 min prior to glucose bolus (3 g/kg) (time=−60 min in FIG. 1), with a separate group receiving vehicle (20% hydroxypropyl-beta-cyclodextrin) as control. At time 0 min the glucose bolus was administered. Levels of blood glucose were assessed using a glucometer (One-Touch Ultra™ LifeScan) at time −60 minute (prior to compound administration), at 0 min (at time when glucose bolus was given), and at 30, 60, 90, and 120 min post glucose bolus. Glucose excursion (AUC (area under the curve) reduction) in compound treated animals relative to vehicle control is shown in FIG. 2 and Table 2.

## CN(C)C(=O)c1ccc(Nc2ncnc(N3CCC(c4nc(C(C)(C)F)no4)CC3)c2F)c(F)c1 [Compound 1, 3-fluoro-4-(5-fluoro-6-(4-(3-(2-fluoropropan-2-yl)-1,2,4-oxadiazol-5-yl)piperidin-1-yl)pyrimidin-4-ylamino)-N,N-dimethylbenzamide]
0.3 mg/kg p.o. 60 min prior to glucose bolus, time 0 min
  Plasma Glucose Mean: 89.7 mg/dL
0.3 mg/kg p.o., 30 min post glucose bolus
  Plasma Glucose Mean: 201.7 mg/dL
0.3 mg/kg p.o., 60 min post glucose bolus
  Plasma Glucose Mean: 192.2 mg/dL
0.3 mg/kg p.o., 90 min post glucose bolus
  Plasma Glucose Mean: 185.3 mg/dL
0.3 mg/kg p.o., 120 min post glucose bolus
  Plasma Glucose Mean: 154.8 mg/dL
0.3 mg/kg p.o.
  % Inhibition of Glucose Excursion: 6.5%
0.3 mg/kg p.o., time -60 min (prior to compound administration)
  Plasma Glucose Mean: 106.3 mg/dL
3.0 mg/kg p.o. 60 min prior to glucose bolus, time 0 min
  Plasma Glucose Mean: 82.7 mg/dL
3.0 mg/kg p.o., 30 min post glucose bolus
  Plasma Glucose Mean: 184.5 mg/dL
3.0 mg/kg p.o., 60 min post glucose bolus
  Plasma Glucose Mean: 144.2 mg/dL
3.0 mg/kg p.o., 90 min post glucose bolus
  Plasma Glucose Mean: 151.2 mg/dL
3.0 mg/kg p.o., 120 min post glucose bolus
  Plasma Glucose Mean: 146.2 mg/dL
3 mg/kg p.o.
  % Inhibition of Glucose Excursion: 47.0%
3.0 mg/kg p.o., time -60 min (prior to compound administration)
  Plasma Glucose Mean: 110.0 mg/dL
10.0 mg/kg p.o. 60 min prior to glucose bolus, time 0 min
  Plasma Glucose Mean: 76.0 mg/dL
10.0 mg/kg p.o., 30 min post glucose bolus
  Plasma Glucose Mean: 174.0 mg/dL
10.0 mg/kg p.o., 60 min post glucose bolus
  Plasma Glucose Mean: 135.8 mg/dL
10.0 mg/kg p.o., 90 min post glucose bolus
  Plasma Glucose Mean: 141.3 mg/dL
10.0 mg/kg p.o., 120 min post glucose bolus
  Plasma Glucose Mean: 132.5 mg/dL
10 mg/kg p.o.
  % Inhibition of Glucose Excursion: 60.1%
10.0 mg/kg p.o., time -60 min (prior to compound administration)
  Plasma Glucose Mean: 108.7 mg/dL
30.0 mg/kg p.o. 60 min prior to glucose bolus, time 0 min
  Plasma Glucose Mean: 93.0 mg/dL
30.0 mg/kg p.o., 30 min post glucose bolus
  Plasma Glucose Mean: 197.0 mg/dL
30.0 mg/kg p.o., 60 min post glucose bolus
  Plasma Glucose Mean: 124.8 mg/dL
30.0 mg/kg p.o., 90 min post glucose bolus
  Plasma Glucose Mean: 135.8 mg/dL
30.0 mg/kg p.o., 120 min post glucose bolus
  Plasma Glucose Mean: 130.2 mg/dL
30 mg/kg p.o.
  % Inhibition of Glucose Excursion: 52.1%
30.0 mg/kg p.o., time -60 min (prior to compound administration)
  Plasma Glucose Mean: 104.8 mg/dL
Diabetic ZDF rats, 0.3-30 mg/kg p.o.
  Effect on blood glucose after a challenge with glucose: lowered blood glucose
